Tests used:
Assay type in all cases: in vivo
Alopecurus myosuroides [1] = test: Pre-emergence herbicidal activity against ALOMY; settings: dosage 80 g/ha, scored visually after about 3 weeks vs untreated controls; for pest or weed control at 80 g/ha: Alopecurus myosuroides, 504 h
Description: (§1) 1. Pre-emergence herbicidal action against harmful plants and crop plant compatibility Seeds of monocotyledonous and dicotyledonous weed plants and crop plants are placed in plastic or wood fiber pots and covered with soil. The compounds of the invention, formulated in the form of wettable powders (WP) or as emulsion concentrates (EC), are then applied onto the surface of the covering soil as aqueous suspension or emulsion with addition of 0.5% additive at a water application rate of 600 l/ha (converted). After the treatment, the pots are placed in a greenhouse and kept under good growth conditions for the trial plants. After about 3 weeks, the effect of the preparations is scored visually in comparison with untreated controls as percentages. For example, 100% activity=the plants have died, 0% activity=like control plants. [table]

Avena fatua [2] = test: Pre-emergence herbicidal activity against AVEFA; settings: dosage 80 g/ha, scored visually after about 3 weeks vs untreated controls
Description: as §1

Stellaria media [3] = test: Pre-emergence herbicidal activity against STEME; settings: dosage 80 g/ha, scored visually after about 3 weeks vs untreated controls
Description: as §1

Alopecurus myosuroides [4] = test: Post-emergence herbicidal activity against ALOMY; settings: dosage 320 g/ha, rated visually after about 3 weeks; for pest or weed control at 320 g/ha: Alopecurus myosuroides, 504 h
Procedure: (§2) [table] Seeds of monocotyledonous and dicotyledonous weeds and crop plants are placed in sandy loam in plastic or wood-fiber pots, covered with soil and cultivated in a greenhouse under controlled growth conditions. 2 to 3 weeks after sowing, the test plants are treated at the one-leaf stage. The compounds of the invention, formulated in the form of wettable powders (WP) or as emulsion concentrates (EC), are then sprayed onto the green parts of the plants as aqueous suspension or emulsion with addition of 0.5% additive at a water application rate of 600 l/ha (converted). After the test plants had been kept in the greenhouse under optimum growth conditions for about 3 weeks, the activity of the preparations is rated visually in comparison to untreated controls. For example, 100% activity=the plants have died, 0% activity=like control plants.

Avena fatua [5] = test: Post-emergence herbicidal activity against AVEFA; settings: dosage 320 g/ha, rated visually after about 3 weeks; for pest or weed control at 320 g/ha: Avena fatua, 504 h
Procedure: as §2

Echinochloa crus-galli = test: Post-emergence herbicidal activity against ECHCG; settings: dosage 320 g/ha, rated visually after about 3 weeks; for pest or weed control at 320 g/ha: Echinochloa crus-galli, 504 h
Procedure: as §2

Lolium rigidum [6] = test: Post-emergence herbicidal activity against LOLRI; settings: dosage 320 g/ha, rated visually after about 3 weeks
Procedure: as §2

Setaria viridis [7] = test: Post-emergence herbicidal activity against SETVI; settings: dosage 320 g/ha, rated visually after about 3 weeks; for pest or weed control at 320 g/ha: Setaria viridis, 504 h
Procedure: as §2

Pharbitis purpurea = test: Post-emergence herbicidal activity against PHBPU; settings: dosage 320 g/ha, rated visually after about 3 weeks; for pest or weed control at 320 g/ha: Ipomoea purpurea, 504 h
Procedure: as §2

Polygonum convolvulus [8] = test: Post-emergence herbicidal activity against POLCO; settings: dosage 320 g/ha, rated visually after about 3 weeks; for pest or weed control at 320 g/ha: Fallopia convolvulus, 504 h
Procedure: as §2

Stellaria media [9] = test: Post-emergence herbicidal activity against STEME; settings: dosage 320 g/ha, rated visually after about 3 weeks; for pest or weed control at 320 g/ha: Stellaria media, 504 h
Procedure: as §2

Viola tricolor [10] = test: Post-emergence herbicidal activity against VIOTR; settings: dosage 320 g/ha, rated visually after about 3 weeks; for pest or weed control at 320 g/ha: Viola tricolor, 504 h
Procedure: as §2

Veronica persica [11] = test: Post-emergence herbicidal activity against VERPE; settings: dosage 320 g/ha, rated visually after about 3 weeks; for pest or weed control at 320 g/ha: Veronica persica, 504 h
Procedure: as §2

Hordeum murinum [12] = test: Post-emergence herbicidal activity against HORMU; settings: dosage 320 g/ha, rated visually after about 3 weeks
Procedure: as §2

Polygonum convolvulus [13] = test: Pre-emergence herbicidal activity against POLCO; settings: dosage 80 g/ha, scored visually after about 3 weeks vs untreated controls; for pest or weed control at 80 g/ha: Fallopia convolvulus, 504 h
Description: as §1

Amaranthus retroflexus [14] = test: Post-emergence herbicidal activity against AMARE; settings: dosage 320 g/ha, rated visually after about 3 weeks; for pest or weed control at 320 g/ha: Amaranthus retroflexus, 504 h
Procedure: as §2

Lolium rigidum [15] = test: Pre-emergence herbicidal activity against LOLRI; settings: dosage 80 g/ha, scored visually after about 3 weeks vs untreated controls
Description: as §1

Setaria viridis [16] = test: Pre-emergence herbicidal activity against SETVI; settings: dosage 80 g/ha, scored visually after about 3 weeks vs untreated controls
Description: as §1

Amaranthus retroflexus [17] = test: Pre-emergence herbicidal activity against AMARE; settings: dosage 80 g/ha, scored visually after about 3 weeks vs untreated controls
Description: as §1

Viola tricolor [18] = test: Pre-emergence herbicidal activity against VIOTR; settings: dosage 80 g/ha, scored visually after about 3 weeks vs untreated controls
Description: as §1

Veronica persica [19] = test: Pre-emergence herbicidal activity against VERPE; settings: dosage 80 g/ha
Description: as §1

Hordeum murinum [20] = test: Pre-emergence herbicidal activity against HORMU; settings: dosage 80 g/ha
Description: as §1

Abutilon theophrasti = test: Post-emergence herbicidal activity against ABUTH; settings: dosage 320 g/ha, rated visually after about 3 weeks
Procedure: as §2

Structure (SMILES) | Post-emergence herbicidal activity in % against ALOMY (Alopecurus myosuroides [4]) [%] | Post-emergence herbicidal activity in % against AVEFA (Avena fatua [5]) [%] | Post-emergence herbicidal activity in % against ECHCG (Echinochloa crus-galli) [%] | Post-emergence herbicidal activity in % against LOLRI (Lolium rigidum [6]) [%] | Post-emergence herbicidal activity in % against SETVI (Setaria viridis [7]) [%] | Post-emergence herbicidal activity in % against PHBPU (Pharbitis purpurea) [%] | Post-emergence herbicidal activity in % against POLCO (Polygonum convolvulus [8]) [%] | Post-emergence herbicidal activity in % against STEME (Stellaria media [9]) [%] | Post-emergence herbicidal activity in % against VIOTR (Viola tricolor [10]) [%] | Post-emergence herbicidal activity in % against VERPE (Veronica persica [11]) [%] | Post-emergence herbicidal activity in % against HORMU (Hordeum murinum [12]) [%] | pest or weed control at 320 g/ha (Alopecurus myosuroides [4]) [%] | pest or weed control at 320 g/ha (Avena fatua [5]) [%] | pest or weed control at 320 g/ha (Setaria viridis [7]) [%] | pest or weed control at 320 g/ha (Pharbitis purpurea) [%] | pest or weed control at 320 g/ha (Polygonum convolvulus [8]) [%] | pest or weed control at 320 g/ha (Stellaria media [9]) [%] | pest or weed control at 320 g/ha (Veronica persica [11]) [%] | Post-emergence herbicidal activity in % against ABUTH (Abutilon theophrasti) [%] | Post-emergence herbicidal activity in % against AMARE (Amaranthus retroflexus [14]) [%] | further results
C[C@]1(C(=O)N[C@@H]2CO[C@H](C(=O)NCc3ncc(C(F)(F)F)cc3Cl)C2)CC(c2cc(F)cc(F)c2)=NO1 [Example I-27] | 90 | 100 | 100 | 90 | 80 | 90 | 80 | 90 | 80 | 80 | 100 |  |  |  |  |  |  |  |  |  | Pre-emergence herbicidal activity in % against ALOMY (Alopecurus myosuroides [1]): 90%; Pre-emergence herbicidal activity in % against AVEVA (AVEFA) (Avena fatua [2]): 80%; Pre-emergence herbicidal activity in % against STEME (Stellaria media [3]): 90%
CC1(C(=O)N[C@@H]2CO[C@H](C(=O)N3CCCC3)C2)CC(c2cc(F)cc(F)c2)=NO1 (relative stereo) [Example I-03, 3-(3,5-difluorophenyl)-5-methyl-N-[cis-5-(pyrrolidine-1-carbonyl)tetrahydrofuran-3-yl]-4H-isoxazole-5-carboxamide] |  |  |  |  |  |  |  |  |  |  |  | 80 | 90 | 90 | 80 | 80 | 90 | 90 |  |  | pest or weed control at 80 g/ha (Polygonum convolvulus [13]): 80%; pest or weed control at 80 g/ha (Stellaria media [3]; Stellaria media, 504 h): 80%; pest or weed control at 320 g/ha (Echinochloa crus-galli): 80%; pest or weed control at 320 g/ha (Amaranthus retroflexus [14]): 80%; pest or weed control at 320 g/ha (Viola tricolor [10]): 80%
C=CC1(C(=O)N[C@@H]2CO[C@H](C(=O)N3CCCC3)C2)CC(c2cc(F)cc(F)c2)=NO1 (relative stereo) [Example I-06, 3-(3,5-difluorophenyl)-N-[cis-5-(pyrrolidin-1-carbonyl)tetrahydrofuran-3-yl]-5-vinyl-4H-isoxazole-5-carboxamide] |  |  |  |  |  |  |  |  |  |  |  | 90 | 90 | 80 | 80 | 80 | 80 | 80 |  |  | pest or weed control at 320 g/ha (Amaranthus retroflexus [14]): 80%
C=CC1(C(=O)NC2COC(C(=O)NC(C)CC(=O)OCC)C2)CC(c2cc(F)cc(F)c2)=NO1 (centres unmarked) [Example I-22] | 100 | 100 | 100 | 100 | 90 | 90 | 80 | 80 | 80 | 80 | 100 |  |  |  |  |  |  |  | 80 | 90 | Pre-emergence herbicidal activity in % against ALOMY (Alopecurus myosuroides [1]): 100%; Pre-emergence herbicidal activity in % against AVEVA (AVEFA) (Avena fatua [2]): 100%; Pre-emergence herbicidal activity in % against LOLRI (Lolium rigidum [15]): 100%; Pre-emergence herbicidal activity in % against SETVI (Setaria viridis [16]): 100%; Pre-emergence herbicidal activity in % against AMARE (Amaranthus retroflexus [17]): 100%; Pre-emergence herbicidal activity in % against POLCO (Polygonum convolvulus [13]): 100%; Pre-emergence herbicidal activity in % against STEME (Stellaria media [3]): 90%; Pre-emergence herbicidal activity in % against VIOTR (Viola tricolor [18]): 100%; Pre-emergence herbicidal activity in % against VERPE (Veronica persica [19]): 100%; Pre-emergence herbicidal activity in % against HORMU (Hordeum murinum [20]): 100%
CCCS(=O)(=O)NC(=O)[C@@H]1C[C@H](NC(=O)[C@@]2(C)CC(c3cc(F)cc(F)c3)=NO2)CO1 [Example I-28] | 90 | 100 | 90 | 100 | 90 | 90 | 80 | 90 | 90 | 90 | 90 |  |  |  |  |  |  |  | 80 | 80 | 
CC1(C(=O)N[C@@H]2CO[C@H](C(=O)NC3CC3)C2)CC(c2cc(F)cc(F)c2)=NO1 (relative stereo) [Example I-04, N-[cis-5-(cyclopropylcarbamoyl)tetrahydrofuran-3-yl]-3-(3,5-difluorophenyl)-5-methyl-4H-isoxazole-5-carboxamide] |  |  |  |  |  |  |  |  |  |  |  | 90 | 100 | 90 | 80 | 80 | 80 | 80 |  |  | pest or weed control at 80 g/ha (Alopecurus myosuroides [1]): 80%; pest or weed control at 80 g/ha (Polygonum convolvulus [13]): 90%; pest or weed control at 320 g/ha (Echinochloa crus-galli): 80%; pest or weed control at 320 g/ha (Viola tricolor [10]): 80%
C=C[C@]1(C(=O)N[C@@H]2CO[C@H](C(=O)NS(=O)(=O)CCC)C2)CC(c2cc(F)cc(F)c2)=NO1 [Example I-29] | 90 | 90 | 90 | 90 | 90 | 90 | 90 | 90 | 90 | 90 | 90 |  |  |  |  |  |  |  | 90 | 90 | 
CC1(C(=O)NC2COCC2C(=O)NC2CC2)CC(c2cc(F)cc(F)c2)=NO1 (centres unmarked) [Example I-08, N-[4-(cyclopropylcarbamoyl)tetrahydrofuran-3-yl]-3-(3,5-difluorophenyl)-5-methyl-4H-isoxazole-5-carboxamide] |  |  |  |  |  |  |  |  |  |  |  | 90 | 80 |  | 80 | 80 |  | 80 |  |  | pest or weed control at 80 g/ha (Alopecurus myosuroides [1]): 90%; pest or weed control at 80 g/ha (Veronica persica [19]; Veronica persica, 504 h): 90%

Reference: US11613522B2, “Herbicidally active 3-phenylisoxazoline-5-carboxamides of tetrahydro- and dihydrofurancarboxamides” (BAYER AKTIENGESELLSCHAFT, priority 2017, dated 2023)
